In patent US7629135B2, “Toll-like receptor agonists and antagonists and methods of use thereof” (The Board of Trustees of the University of Illinois, priority 2006, dated 2009):

What was measured:
TLR2-HeLa cells = experiment: MAP kinase phosphorylation and IκBα degradation in TLR2-HeLa cells (Western blotting); type: cell-based, human; settings: mock-transfected HeLa cells, 10 min; SAA 1 μM, Pam3CSK4 1 μg/ml
Protocol: FIG. 8 is a series of protein gels and corresponding Western blotting graphs showing that SAA-induced TLR2-dependent signaling in transfected cells. Serum-starved TLR2-HeLa and mock-transfected HeLa cells were stimulated with SAA (1 μM) or Pam3CSK4 (1 μg/ml) for the indicated time. The phosphorylation level of ERK1/2 (A), p38 (B) and JNK (C) was detected by Western blotting using antibodies recognizing the phosphorylated forms of the MAP kinases (blots). (D) The level of cytoplasmic IκB ? was detected by Western blotting using an anti-IκB ? antibody and the β-actin levels in the corresponding samples were shown as loading controls. […] A representative set of data, from 3 repeating experiments, is presented.

TLR2:Fc fusion protein = target: T1, TLR2:Fc fusion protein (Homo sapiens, UniProt O60603); experiment: SAA-TLR2 interaction, ELISA-like binding assay; settings: 0.0625 to 8 μg/ml ligand coated, 2 μg/ml TLR2:Fc
T1 construct: measured in an ELISA-like assay using a TLR2 extracellular domain:Fc fragment fusion protein; made in house; host or cells: CHO cells (pFuse-Fc vector, InvivoGen), purified from culture supernatant on protein A
Description: Another example of a method for screening antagonists that disrupt the SAA/TLR2 interaction involves a binding assay that includes a TLR2 ectodomain (extracellular domain) fused to an Fc fragment of immunoglobulin (TLR2:Fc), such as the assay used in FIG. 9B. This assay is typically used as a follow-up or secondary assay to that assay described above. In other words, any compounds collected from the assay described above are subjected to the TLR2:Fc-based binding assay to confirm that the antagonistic effect is on the disruption of SAA-TLR2 binding. This method is generally carried out as follows and is also described in the Examples. A TLR2:Fc fusion protein is generated such that the N-terminal 588 amino acids of human TLR2 are fused in frame to the Fc portion of mouse IgG2a. The cDNA encoding for the resulting chimeric protein is cloned in pFuse-Fc vector (InvivoGen), and stably transfected into CHO cells. […] Absorbance at 450 nm is measured on a SpectraMax 340 plate reader (Molecular Devices).
Assays for SAA-TLR2 interaction: The TL2:Fc fusion protein was generated such that the N-terminal 588 amino acids of human TLR2 protein were fused in frame with the Fc portion of mouse IgG2a. […] Absorbance at 450 nm was measured on a SpectraMax 340 plate reader (Molecular Devices). […]

T1 sequence (O60603 21-588 limits assumed): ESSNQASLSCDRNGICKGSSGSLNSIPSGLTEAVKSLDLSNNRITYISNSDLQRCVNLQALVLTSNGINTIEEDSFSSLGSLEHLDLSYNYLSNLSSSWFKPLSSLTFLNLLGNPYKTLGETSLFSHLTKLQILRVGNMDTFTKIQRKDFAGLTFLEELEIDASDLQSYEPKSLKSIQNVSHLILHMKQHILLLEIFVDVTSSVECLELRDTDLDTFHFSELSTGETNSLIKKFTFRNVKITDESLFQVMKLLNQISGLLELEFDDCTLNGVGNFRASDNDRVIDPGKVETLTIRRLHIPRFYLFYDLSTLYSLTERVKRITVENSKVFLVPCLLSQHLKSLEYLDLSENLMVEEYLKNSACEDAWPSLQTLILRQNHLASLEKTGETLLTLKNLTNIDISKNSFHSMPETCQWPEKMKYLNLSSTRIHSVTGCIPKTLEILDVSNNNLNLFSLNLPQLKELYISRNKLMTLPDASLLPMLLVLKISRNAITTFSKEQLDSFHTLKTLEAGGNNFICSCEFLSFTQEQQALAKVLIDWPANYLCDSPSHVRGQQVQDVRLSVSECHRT

Pam3CSK4 [reference compound]
ERK1/2 phosphorylation in mock-transfected cells (TLR2-HeLa cells): not
binding to TLR2:Fc fusion protein (TLR2:Fc fusion protein): directly bind to the ectodomain
